The values that follow are results of earlier work, collected in patent US5516503A, “Diagnostic composition comprising a binuclear complex, its method of preparation and its use in magnetic resonance imaging” (Guerbet S.A., priority 1989, dated 1996).

As usually defined, the LD50 is the dose expected to kill half of the subjects tested.

The conditions of data set [1]: information of Berlex Lab.
The next data set relates to male mice. The conditions noted are these: document FR-A-2 596 992.

As to `CNC[C@H](O)[C@@H](O)[C@H](O)[C@H](O)CO.CNC[C@H](O)[C@@H](O)[C@H](O)[C@H](O)CO.O=C([O-])CN(CCN(CC(=O)[O-])CC(=O)O)CCN(CC(=O)[O-])CC(=O)O.[Gd+3]` [Magnevist, salt of di-N-methylglucamine (dimeglumine) of the complex Gd(III)-diethylenetriaminepentaacetic acid (DTPA)], the osmotic pressure in data set [1] is listed as 1940 mosm/kg. For the same molecule, the median lethal dose (LD50) with male mice is 4.45 mmol/kg.
